Columns and labels:
Liver microsome [1] = assay: Metabolic stability in human liver microsomes; assay type: ADME
[2] = Metabolic stability in mouse liver microsomes; assay type: ADME
Liver microsome [3] = assay: Metabolic stability in rat liver microsomes; assay type: ADME
[4] = Permeability across human Caco2 cells; assay type: ADME, cell-based; conditions: Caco-2, read-out: permeability
[5] = Oral bioavailability in rat; assay type: ADME, organism-based; conditions: in vivo
[6] = Cmax in rat plasma at 10 mg/kg, po administered as single dose; assay type: ADME, organism-based; parameters: dose 10 mg/kg, route oral
[7] = Cmax in rat liver at 10 mg/kg, po administered as single dose; assay type: ADME, organism-based; parameters: dose 10 mg/kg, route oral
[8] = Cmax in rat small intestine at 10 mg/kg, po administered as single dose; assay type: ADME, organism-based; parameters: dose 10 mg/kg, route oral
[9] = Cmax in rat heart at 10 mg/kg, po administered as single dose; assay type: ADME, organism-based; parameters: dose 10 mg/kg, route oral
[10] = Cmax in rat brain at 10 mg/kg, po administered as single dose; assay type: ADME, organism-based; parameters: dose 10 mg/kg, route oral
[11] = Half life in rat plasma at 10 mg/kg, po administered as single dose; assay type: ADME, organism-based
[12] = Tmax in rat at 10 mg/kg, po administered as single dose; assay type: ADME, organism-based; conditions: in vivo

Stability (Liver microsome [1]) [%] | Stability [2] [%] | Stability (Liver microsome [3]) [%] | Papp [4] [×10⁻⁶ cm/s] | bioavailability [5] [%] | Cmax [6] [µM] | Cmax [7] [µM] | Cmax [8] [µM] | Cmax [9] [µM] | Cmax [10] [µM] | half-life [11] [h] | Tmax [12] [h] | Structure (SMILES)
0 | 5 | 11 | – | – | – | – | – | – | – | – | – | O=C(O)C[C@H]1CC[C@H](c2ccc(C(=O)Nc3nnc(Cc4ccccc4)s3)cc2)CC1
2 | 3 | 4 | 0.6 | – | – | – | – | – | – | – | – | O=C(Nc1nnc(NC2CCCC2)s1)c1ccc(O[C@H]2CC[C@@H](C(=O)O)CC2)cc1
2 | 100 | 53 | 2.9 | – | – | – | – | – | – | – | – | O=C(Nc1nc(Cc2ccccc2)no1)c1ccc(O[C@H]2CC[C@@H](C(=O)O)CC2)cc1
3 | 0 | 0 | 10.3 | – | – | – | – | – | – | – | – | O=C(O)C[C@H]1CC[C@H](c2ccc(C(=O)Nc3nnc(COC4CCCC4)s3)cc2)CC1
1 | 99 | 61 | 0.9 | – | – | – | – | – | – | – | – | O=C(Nc1nc(Cc2cc(F)cc(F)c2)no1)c1ccc(O[C@H]2CC[C@@H](C(=O)O)CC2)cc1
1 | 42 | 9 | 2.9 | 4 | – | – | – | – | – | – | – | O=C(Nc1nnc(Cc2cc(F)cc(F)c2)s1)c1ccc(O[C@H]2CC[C@@H](C(=O)O)CC2)cc1
5 | 8 | 1 | 4.1 | – | – | – | – | – | – | – | – | O=C(Nc1nnc(COC2CCCC2)s1)c1ccc(O[C@H]2CC[C@@H](C(=O)O)CC2)cc1
9 | 8 | 3 | 7.2 | – | – | – | – | – | – | – | – | O=C(O)C[C@H]1CC[C@H](c2ccc(C(=O)Nc3nnc(CCC4CCCO4)s3)cc2)CC1 (stereo not given in full)
11 | 8 | 4 | 0.6 | – | – | – | – | – | – | – | – | O=C(Nc1nnc(Nc2ccccc2)s1)c1ccc(O[C@H]2CC[C@@H](C(=O)O)CC2)cc1
3 | 27 | 22 | 1.5 | – | – | – | – | – | – | – | – | O=C(Nc1nnc(Cc2ccccc2)s1)c1ccc(O[C@H]2CC[C@@H](C(=O)O)CC2)cc1
1 | 23 | 37 | 1.1 | – | – | – | – | – | – | – | – | O=C(Nc1nnc(Cc2ccccc2)s1)c1ccc(O[C@H]2CC[C@@H](C(=O)O)CC2)nc1
1 | 9 | 8 | 3 | – | – | – | – | – | – | – | – | O=C(Nc1nnc(Cc2cc(F)cc(F)c2)s1)c1ccc(O[C@H]2CC[C@H](C(=O)O)CC2)cc1
2 | 56 | 27 | 1.7 | – | – | – | – | – | – | – | – | O=C(Nc1nnc(Cc2cccc(Cl)c2)s1)c1ccc(O[C@H]2CC[C@@H](C(=O)O)CC2)nc1
– | – | – | – | 40 | 13.2 | 248 | 14.3 | 4.2 | 0.16 | 7.4 | 4 | NCCCC[C@H](N)C(=O)O.O=C(Nc1nnc(Cc2cc(F)cc(F)c2)s1)c1ccc(O[C@H]2CC[C@@H](C(=O)O)CC2)cc1

Reference: ChEMBL document CHEMBL3739307, “Synthesis and multiparametric evaluation of thiadiazoles and oxadiazoles as diacylglycerol acyltransferase type 1 inhibitors” (Bioorg Med Chem Lett, 2016)
